Experimental data reported in patent US20050070461A1, “Means and methods for altering the motility of the gastrointestinal tract” (priority 2002, published 2005).

Tests used:
[1] = tested on: gastric emptying in control mice; assay: Gastric emptying in control mice given the anesthetics
[2] = tested on: murine model for postoperative ileus (gastroparesis after intestinal manipulation); assay: Gastric emptying by scintigraphic imaging after intestinal manipulation (murine model for postoperative ileus); format: in vivo, mice; details: for gastric emptying rate k / half-emptying time: MAb pre-operative, hexamethonium or guanethidine postoperative injection
[3] = tested on: MPO-containing leukocytes in ileal muscularis; assay: Leukocyte recruitment / MPO activity in ileal muscularis after intestinal manipulation; format: in vivo, mice

## Cc1cccc(C)c1N=C1NCCCS1 [xylazine]
[1]; xylazine 20 mg/kg used alone
  gastric emptying: did not alter gastric emptying

## CNC1(c2ccccc2Cl)CCCCC1=O (stereo not shown) [ketamine]
[1]; xylazine 20 mg/kg in combination ketamine 100 mg/kg
  gastric emptying: did not alter gastric emptying

## CN1CCC(=C2c3ccccc3CC(=O)c3sccc32)CC1 [ketotifen]
[2]; 24 hours after IM
  development of gastroparesis: could be prevented
[3]; 24 hours after IM, ketotifen 10 mg/kg p.o. for five days prior to surgery
  decrease of postoperative recruitment of MPO-containing leukocytes compared to vehicle: 45%

## C[N+](C)(C)CCCCCC[N+](C)(C)C [hexamethonium]
[2]; 6 hours after IM
  gastroparesis: reversed the gastroparesis partially
  gastric emptying rate k: normalized
  half-emptying time: normalized
[2]; 24 hours after IM
  development of gastroparesis: completely
  gastric emptying rate k: normalized
  half-emptying time: normalized
[2]; mice, time not stated
  development of gastroparesis: capable of preventing the development of gastroparesis
[3]; 24 hours after IM
  leukocyte influx / recruitment in ileal muscularis (MPO-staining cells): did not affect
[3]; 24 hours after surgery
  amount of MPO activity in muscularis homogenates: did not affect
